Measurements as given in EP1173432B9, “PIPERIDINE-INDOLE COMPOUNDS HAVING 5-HT6 AFFINITY” (NPS Allelix Corp., priority 1999, dated 2000).
Structures can show the parent of a compound that is named as a salt.

Assays:
human 5-HT6 receptor = target: T1, human 5-HT6 receptor (Homo sapiens, UniProt P50406); assay: Binding affinity for the 5-HT6 receptor (3H-LSD displacement, membranes of recombinant cells); conditions: 3H-LSD radioligand, 60 minute incubation at 37 °C
T1 construct: expressed in transfected cells; host or cells: recombinant cells
Procedure: All of the compounds of the invention were evaluated using cell types receptive specifically to the 5-HT6 receptor (for cloning and characterization of the human 5-HT6 receptor see Kohen, et al. J. Neurochemistry, 66, 1996: 47-56). […] After a 60 minute incubation at 37 °C, the incubation was terminated by vacuum filtration. The filters were washed with buffer and the filters were counted for radioactivity using liquid scintillation spectrometry. The affinity of the test compound for the 5-HT6 receptor was determined by computer-assisted analysis of the data and determining the amount of the compound necessary to inhibit 50% of the binding of the radioligand to the receptor. Concentrations ranging from 10^-11 M to 10^-5 M of the test compound were evaluated.

human 5-HT2C = target: T2, human 5-HT2C (Homo sapiens, UniProt P28335); assay: Binding selectivity for 5-HT6 relative to the 5-HT2C receptor; conditions: selectivity 5-HT6 over 5-HT2C
T2 sequence (P28335 33-458): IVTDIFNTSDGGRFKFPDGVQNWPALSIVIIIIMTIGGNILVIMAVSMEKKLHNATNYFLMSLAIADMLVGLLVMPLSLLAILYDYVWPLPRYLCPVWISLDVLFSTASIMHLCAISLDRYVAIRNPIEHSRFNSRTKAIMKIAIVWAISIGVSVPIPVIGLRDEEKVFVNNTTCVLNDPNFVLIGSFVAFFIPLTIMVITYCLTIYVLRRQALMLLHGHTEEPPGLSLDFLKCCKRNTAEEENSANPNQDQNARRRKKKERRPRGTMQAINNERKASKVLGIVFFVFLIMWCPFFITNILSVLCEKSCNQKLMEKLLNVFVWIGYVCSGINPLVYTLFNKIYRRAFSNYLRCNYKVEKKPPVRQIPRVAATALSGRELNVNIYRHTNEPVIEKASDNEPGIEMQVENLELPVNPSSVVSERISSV

5-HT7 receptors = 5-HT7 receptors (Homo sapiens, UniProt P34969); assay: Binding selectivity for 5-HT6 relative to the 5-HT7 receptor; conditions: selectivity 5-HT6 over 5-HT7
5-HT7 receptors, sequence (P34969 whole entry): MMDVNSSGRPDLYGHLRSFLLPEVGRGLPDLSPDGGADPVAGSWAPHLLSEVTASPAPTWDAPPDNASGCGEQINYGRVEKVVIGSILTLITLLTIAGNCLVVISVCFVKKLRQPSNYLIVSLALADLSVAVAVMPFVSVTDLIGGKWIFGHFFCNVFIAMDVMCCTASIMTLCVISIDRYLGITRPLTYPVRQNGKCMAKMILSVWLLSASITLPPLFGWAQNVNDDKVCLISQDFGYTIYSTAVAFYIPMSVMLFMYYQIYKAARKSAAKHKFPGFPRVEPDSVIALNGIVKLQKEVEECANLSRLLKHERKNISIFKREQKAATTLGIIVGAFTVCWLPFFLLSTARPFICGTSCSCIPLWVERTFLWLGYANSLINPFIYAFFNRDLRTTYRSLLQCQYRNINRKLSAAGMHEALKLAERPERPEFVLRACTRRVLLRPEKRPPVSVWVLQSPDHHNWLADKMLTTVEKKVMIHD

T1 sequence (P50406 whole entry): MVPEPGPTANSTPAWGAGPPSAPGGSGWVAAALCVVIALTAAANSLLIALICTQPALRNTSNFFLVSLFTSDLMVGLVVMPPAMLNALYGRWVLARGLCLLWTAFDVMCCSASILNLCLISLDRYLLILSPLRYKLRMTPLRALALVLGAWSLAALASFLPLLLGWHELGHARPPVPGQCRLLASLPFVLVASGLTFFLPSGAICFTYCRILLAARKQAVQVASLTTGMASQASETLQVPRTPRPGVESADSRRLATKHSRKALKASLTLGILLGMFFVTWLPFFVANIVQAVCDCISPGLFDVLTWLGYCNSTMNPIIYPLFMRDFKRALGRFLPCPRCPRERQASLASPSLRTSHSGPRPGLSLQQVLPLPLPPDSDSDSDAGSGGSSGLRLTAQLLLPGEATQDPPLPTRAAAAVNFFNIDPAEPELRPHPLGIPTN

Structure (SMILES) | Ki (human 5-HT6 receptor) [nM] | fold greater affinity for the human 5-HT6 receptor relative to the human 5-HT2C receptor (human 5-HT2C) [fold] | fold greater affinity for the human 5-HT6 receptor relative to the human 5-HT7 receptor (5-HT7 receptors) [fold]
CN1CC=C(c2cn(S(=O)(=O)c3ccc(F)cc3)c3cc(Br)ccc23)CC1 [Example 4k, 6-Bromo-1-(4-fluorophenylsulfonyl)-3-(1-methyl-1,2,3,6-tetrahydro-4-pyridinyl)-indole] | ≤ 50 |  | 
Cc1ccc(S(=O)(=O)n2cc(C3=CCN(C)CC3)c3cc(F)ccc32)cc1 [Example 3b, 5-Fluoro-1-(4-methylphenylsulfonyl)-3-(1-methyl-1,2,3,6-tetrahydro-4-pyridinyl)indole] | ≤ 5 | ≥ 60 | ≥ 60
Cc1ccc(S(=O)(=O)n2cc(C3=CCN(C)CC3)c3cc(OC(F)(F)F)ccc32)cc1 [Example 4kk, 1-(4-Methylphenylsulfonyl)-3-(1-methyl-1,2,3,6-tetrahydro-4-pyridinyl)-5-trifluoromethoxyindole] | ≤ 5 |  | 
CN1CC=C(c2cn(S(=O)(=O)c3ccc4ccccc4c3)c3ccc(F)cc23)CC1 [Example 4ff, 5-Fluoro-3-(1-methyl-1,2,3,6-tetrahydro-4-pyridinyl)-1-(2-naphthylsulfonyl)indole] |  | ≥ 60 | ≥ 60
Cc1ccc(S(=O)(=O)n2cc(C3=CCN(C)CC3)c3cc(OC4CCCCC4)ccc32)cc1 [Example 4i, 5-Cyclohexyloxy-1-(4-methylphenylsulfonyl)-3-(1-methyl-1,2,3,6-tetrahydro-4-pyridinyl)indole] | ≤ 50 | ≥ 60 | ≥ 60
CN1CC=C(c2cn(S(=O)(=O)c3ccc(Br)cc3)c3ccc(F)cc23)CC1 [Example 4d, 1-(4-Bromophenylsulfonyl)-5-fluoro-3-(1-methyl-1,2,3,6-tetrahydro-4-pyridinyl)indole] | ≤ 50 |  | 
Cc1ccc(S(=O)(=O)n2cc(C3=CCN(C)CC3)c3cc(F)cc(F)c32)cc1 [Example 4ww, 5,7-Difluoro-3-(1-methyl-1,2,3,6-tetrahydro-4-pyridinyl)-1-(4-methylphenylsulfonyl)indole] | ≤ 5 |  | 
CN1CC=C(c2cn(S(=O)(=O)c3ccc(Cl)cc3)c3c(F)cc(F)cc23)CC1 [Example 4zz, 1-(4-Chlorophenylsulfonyl)-5,7-difluoro-3-(1-methyl-1,2,3,6-tetrahydro-4-pyridinyl)indole] | ≤ 5 |  | 
CN1CC=C(c2cn(S(=O)(=O)c3ccc(Cl)cc3)c3ccc(F)cc23)CC1 [Example 4bb, 1-(4-Chlorophenylsulfonyl)-5-fluoro-3-(1-methyl-1,2,3,6-tetrahydro-4-pyridinyl)indole] | ≤ 5 | ≥ 60 | ≥ 60
Cc1cc(C)c(S(=O)(=O)n2cc(C3=CCN(C)CC3)c3cc(F)ccc32)c(C)c1 [Example 4g, 5-Fluoro-3-(1-methyl-1,2,3,6-tetrahydro-4-pyridinyl)-1-(2,4,6-trimethylphenylsulfonyl)indole] | ≤ 50 |  | 
CN1CC=C(c2cn(S(=O)(=O)c3ccccc3)c3ccccc23)CC1 [Example 4a, 3-(1-Methyl-1,2,3,6-tetrahydro-4-pyridinyl)-1-phenylsulfonylindole] | ≤ 5 |  | 
CN1CC=C(c2cn(S(=O)(=O)c3cccc4ccccc34)c3ccc(F)cc23)CC1 [Example 4ee, 5-Fluoro-3-(1-methyl-1,2,3,6-tetrahydro-4-pyridinyl)-1-(1-naphthylsulfonyl)indole] | ≤ 5 |  | 
Cc1ccc(S(=O)(=O)n2cc(C3=CCN(C)CC3)c3cc(C(F)(F)F)ccc32)cc1 [Example 4qq, 1-(4-Methylphenylsulfonyl)-3-(1-methyl-1,2,3,6-tetrahydro-4-pyridinyl)-5-trifluoromethylindole hydrochloride] | ≤ 50 |  | 
CN1CC=C(c2cn(S(=O)(=O)c3ccc(Cl)c([N+](=O)[O-])c3)c3ccc(F)cc23)CC1 [Example 4f, 1-(4-Chloro-3-nitrophenylsulfonyl)-5-fluoro-3-(1-methyl-1,2,3,6-tetrahydro-4-pyridinyl)indole] | ≤ 50 |  | 
CN1CC=C(c2cn(S(=O)(=O)c3ccccc3Br)c3ccc(F)cc23)CC1 [Example 4z, 1-(2-Bromophenylsulfonyl)-5-fluoro-3-(1-methyl-1,2.3,6-tetrahydro-4-pyridinyl)indole] | ≤ 5 | ≥ 60 | ≥ 60
CN1CC=C(c2cn(S(=O)(=O)c3cc(Cl)ccc3Cl)c3ccc(F)cc23)CC1 [Example 4e, 5-Fluoro-1-(2,5-dichlorophenylsulfonyl)-3-(1-methyl-1,2,3,6-tetrahydro-4-pyridinyl)indole] | ≤ 50 |  | 
CN1CC=C(c2cn(S(=O)(=O)c3ccc(Cl)cc3)c3ccc(OC(F)(F)F)cc23)CC1 [Example 4jj, 1-(4-Chlorophenylsulfonyl)-3-(1-methyl-1,2,3,6-tetrahydro-4-pyridinyl)-5-trifluoromethoxyindole] | ≤ 5 |  | 
CN1CC=C(c2cn(S(=O)(=O)c3ccc(F)cc3)c3ccc(Cl)cc23)CC1 [Example 4gg, 5-Chloro-1-(4-fluorophenylsulfonyl)-3-(1-methyl-1,2,3,6-tetrahydro-4-pyridinyl)indole] | ≤ 5 |  | 
CN1CC=C(c2cn(S(=O)(=O)c3cccc4ccccc34)c3c(F)cc(F)cc23)CC1 [Example 4aaa, 5,7-Difluoro-3-(1-methyl-1,2,3,6-tetrahydro-4-pyridinyl)-1-(1-naphthylsulfonyl)indole] | ≤ 5 |  | 
CN1CC=C(c2cn(S(=O)(=O)c3ccc(F)cc3)c3ccccc23)CC1 [Example 4c, 1-(4-Fluorophenylsulfonyl)-3-(1-methyl-1,2,3,6-tetrahydro-4-pyridinyl)indole] | ≤ 5 |  | 
COc1ccc(S(=O)(=O)n2cc(C3=CCN(C)CC3)c3ccccc32)cc1 [Example 4b, 1-(4-Methoxyphenylsulfonyl)-3-(1-methyl-1,2,3,6-tetrahydro-4-pyridinyl)indole] | ≤ 50 |  | 
